According to patent US20150057366A1, “SYNTHESIS OF ELEMICIN AND TOPICAL ANALGESIC COMPOSITIONS” (priority 2012, published 2015):

Test: Preliminary work by the applicant on topical analgesic effectiveness of elemicin compositions
Assay type: in vivo

SMILES | elemicin content compositions require to start being effective as topical analgesics (topical composition, 30% more preferred, preliminary work) | analgesic effectiveness at the concentrations occurring in natural oils (topical, around 2.4-3.0% in nutmeg and manila elemi oils, up to around 10-14% in mace and some elemi oil) | effectiveness in analgesic compositions (topical analgesic compositions, work thus far by the inventor)
C=CCc1cc(OC)c(OC)c(OC)c1 [elemicin, 1,2,3-Trimethoxy-5-prop-2-enylbenzene] | at least 20% | analgesic effectiveness does not occur at such low doses | 
C/C=C/c1cc(OC)c(OC)c(OC)c1 [iso-elemicin] |  |  | also effective
